# Results taken from patent publication US20050192261A1, “Methods and reagents for the treatment of immunoinflammatory disorders” (priority 2003, published 2005).
# Counter-ions that a name gives are not always drawn. Like-named read-outs stand apart in the source and are kept apart here.
# Test system: TNFα secretion in white blood cells from human buffy coat stimulated with phorbol 12-myristate 13-acetate and ionomycin
# Assay: TNFα secretion assay
# Details: for inhibition at 0.5 µM / inhibition at 1 µM / inhibition at 16 µM / inhibition at 31 µM: Homo sapiens
# Protocol: Drugs were added to the indicated concentration. […] The plate was then washed again with 0.1% Tween 20/PBS. An HRP-luminescent substrate was added to each well, and the light intensity of each well was measured using a plate luminometer.
compound,measurement,setting,value
"C[C@]12C=CC(=O)C=C1CC[C@@H]1[C@@H]2[C@@H](O)C[C@@]2(C)[C@H]1CC[C@]2(O)C(=O)CO [Prednisolone, prednisolone]",inhibition at 0.5 µM,"read-out: % inhibition of TNFα secretion, Prednisolone 0.5 μM, Tripelennamine HCl μM r5-r13: 0,0.31,0.61,1.2,2.4,4.9,9.8,20,39",35%
same,inhibition at 1 µM,"read-out: % inhibition of TNFα secretion, Prednisolone 1 μM, Tripelennamine HCl μM r5-r13: 0,0.31,0.61,1.2,2.4,4.9,9.8,20,39",40%
same,inhibition at 0.5 µM,"read-out: inhibition of TNFα secretion, prednisolone 0.5 μM, azatadine maleate r5-r13: 0,0.27,0.54,1.1,2.1,4.3,8.6,17,34 μM",35%
same,inhibition at 0.5 µM,"read-out: inhibition of TNFα secretion, prednisolone 0.5 μM, bromodiphenhydramine HCl r5-r13: 0,0.21,0.43,0.85,1.7,3.4,6.8,14,27 μM",34%
same,inhibition at 0.5 µM,"read-out: inhibition of TNFα secretion, prednisolone 0.5 μM, chlorpheniramine maleate r5-r13: 0,0.2,0.4,0.8,1.6,3.2,6.4,13,26 μM",28%
same,inhibition at 0.5 µM,"read-out: inhibition of TNFα secretion, prednisolone 0.5 μM, clemizole HCl r5-r13: 0,0.22,0.43,0.86,1.7,3.5,6.9,14,28 μM",37%
same,inhibition at 0.5 µM,"read-out: inhibition of TNFα secretion, prednisolone 0.5 μM, doxylamine succinate r5-r13: 0,0.2,0.4,0.8,1.6,3.2,6.4,13,26 μM",32%
same,inhibition at 0.5 µM,"read-out: inhibition of TNFα secretion, prednisolone 0.5 μM, fexofenadine HCl r5-r13: 0,0.073,0.15,0.29,0.58,1.2,2.3,4.6,9.3 μM",45%
same,inhibition at 0.5 µM,"read-out: inhibition of TNFα secretion, prednisolone 0.5 μM, loratadine r5-r13: 0,0.2,0.41,0.82,1.6,3.3,6.5,13,26 μM",29%
same,inhibition at 0.5 µM,"read-out: inhibition of TNFα secretion, prednisolone 0.5 μM, meclizine HCl r5-r13: 0,0.32,0.63,1.3,2.5,5.1,10,20,41 μM",36%
same,inhibition at 0.5 µM,"read-out: inhibition of TNFα secretion, prednisolone 0.5 μM, promethazine HCl r5-r13: 0,0.24,0.49,0.97,1.9,3.9,7.8,16,31 μM",32%
same,inhibition at 0.5 µM,"read-out: inhibition of TNFα secretion, prednisolone 0.5 μM, pyrilamine maleate r5-r13: 0,0.19,0.38,0.76,1.5,3,6.1,12,24 μM",24%
same,inhibition at 1 µM,"read-out: inhibition of TNFα secretion, prednisolone 1 μM, azatadine maleate r5-r13: 0,0.27,0.54,1.1,2.1,4.3,8.6,17,34 μM",43%
same,inhibition at 1 µM,"read-out: inhibition of TNFα secretion, prednisolone 1 μM, bromodiphenhydramine HCl r5-r13: 0,0.21,0.43,0.85,1.7,3.4,6.8,14,27 μM",37%
same,inhibition at 1 µM,"read-out: inhibition of TNFα secretion, prednisolone 1 μM, cetrizine HCl r5-r13: 0,0.2,0.4,0.8,1.6,3.2,6.4,13,26 μM",40%
same,inhibition at 1 µM,"read-out: inhibition of TNFα secretion, prednisolone 1 μM, chlorpheniramine maleate r5-r13: 0,0.2,0.4,0.8,1.6,3.2,6.4,13,26 μM",39%
same,inhibition at 1 µM,"read-out: inhibition of TNFα secretion, prednisolone 1 μM, clemizole HCl r5-r13: 0,0.22,0.43,0.86,1.7,3.5,6.9,14,28 μM",40%
same,inhibition at 1 µM,"read-out: inhibition of TNFα secretion, prednisolone 1 μM, cyproheptadine HCl r5-r13: 0,0.24,0.48,0.96,1.9,3.9,7.7,15,31 μM",39%
same,inhibition at 1 µM,"read-out: inhibition of TNFα secretion, prednisolone 1 μM, doxylamine succinate r5-r13: 0,0.2,0.4,0.8,1.6,3.2,6.4,13,26 μM",35%
same,inhibition at 1 µM,"read-out: inhibition of TNFα secretion, prednisolone 1 μM, fexofenadine HCl r5-r13: 0,0.073,0.15,0.29,0.58,1.2,2.3,4.6,9.3 μM",45%
same,inhibition at 1 µM,"read-out: inhibition of TNFα secretion, prednisolone 1 μM, loratadine r5-r13: 0,0.2,0.41,0.82,1.6,3.3,6.5,13,26 μM",40%
same,inhibition at 1 µM,"read-out: inhibition of TNFα secretion, prednisolone 1 μM, meclizine HCl r5-r13: 0,0.32,0.63,1.3,2.5,5.1,10,20,41 μM",44%
same,inhibition at 1 µM,"read-out: inhibition of TNFα secretion, prednisolone 1 μM, promethazine HCl r5-r13: 0,0.24,0.49,0.97,1.9,3.9,7.8,16,31 μM",39%
same,inhibition at 1 µM,"read-out: inhibition of TNFα secretion, prednisolone 1 μM, pyrilamine maleate r5-r13: 0,0.19,0.38,0.76,1.5,3,6.1,12,24 μM",31%
same,inhibition at 1 µM,"read-out: inhibition of TNFα secretion, prednisolone 1 μM, thiethylperazine maleate r5-r13: 0,0.2,0.39,0.78,1.6,3.1,6.3,13,25 μM",39%
same,inhibition at 0.5 µM,"read-out: percent inhibition of TNFα secretion, Prednisolone 0.5 μM, Bromodiphenhydramine HCl μM r5-r13: 0,0.21,0.43,0.85,1.7,3.4,6.8,14,27",34%
same,inhibition at 0.5 µM,"read-out: percent inhibition of TNFα secretion, Prednisolone 0.5 μM, Clemizole μM r5-r13: 0,0.22,0.43,0.86,1.7,3.5,6.9,14,28",37%
same,inhibition at 0.5 µM,"read-out: percent inhibition of TNFα secretion, Prednisolone 0.5 μM, Loratadine μM r5-r13: 0,0.2,0.41,0.82,1.6,3.3,6.5,13,26",29%
same,inhibition at 0.5 µM,"read-out: percent inhibition of TNFα secretion, Prednisolone 0.5 μM, Promethazine HCl μM r5-r13: 0,0.24,0.49,0.97,1.9,3.9,7.8,16,31",32%
same,inhibition at 1 µM,"read-out: percent inhibition of TNFα secretion, Prednisolone 1 μM, Bromodiphenhydramine HCl μM r5-r13: 0,0.21,0.43,0.85,1.7,3.4,6.8,14,27",37%
same,inhibition at 1 µM,"read-out: percent inhibition of TNFα secretion, Prednisolone 1 μM, Clemizole μM r5-r13: 0,0.22,0.43,0.86,1.7,3.5,6.9,14,28",40%
same,inhibition at 1 µM,"read-out: percent inhibition of TNFα secretion, Prednisolone 1 μM, Cyproheptadine μM r5-r13: 0,0.24,0.48,0.96,1.9,3.9,7.7,15,31",39%
same,inhibition at 1 µM,"read-out: percent inhibition of TNFα secretion, Prednisolone 1 μM, Loratadine μM r5-r13: 0,0.2,0.41,0.82,1.6,3.3,6.5,13,26",40%
same,inhibition at 1 µM,"read-out: percent inhibition of TNFα secretion, Prednisolone 1 μM, Promethazine HCl μM r5-r13: 0,0.24,0.49,0.97,1.9,3.9,7.8,16,31",39%
same,inhibition at 1 µM,"read-out: percent inhibition of TNFα secretion, Prednisolone 1 μM, Thiethylperazine μM r5-r13: 0,0.2,0.39,0.78,1.6,3.1,6.3,13,25",39%
"CC(CN1c2ccccc2Sc2ccccc21)N(C)C (stereo not drawn) [Promethazine HCl, promethazine]",inhibition at 16 µM,"read-out: percent inhibition (dose matrix), Table 99, Promethazine HCl 16 μM, Amoxapine 0-25 μM",30.4%
same,inhibition at 31 µM,"read-out: percent inhibition (dose matrix), Table 99, Promethazine HCl 31 μM, Amoxapine 0-25 μM",80.5%
same,inhibition at 16 µM,"read-out: percent inhibition (dose matrix), Table 100, Promethazine HCl 16 μM, Fluoxetine HCl 0-29 μM",30.8%
same,inhibition at 31 µM,"read-out: percent inhibition (dose matrix), Table 100, Promethazine HCl 31 μM, Fluoxetine HCl 0-29 μM",69.5%
same,inhibition at 16 µM,"read-out: percent inhibition (dose matrix), Table 101, Promethazine HCl 16 μM, NOrtriptyline HCl 0-33 μM per row (c1)",31%
same,inhibition at 31 µM,"read-out: percent inhibition (dose matrix), Table 101, Promethazine HCl 31 μM, NOrtriptyline HCl 0-33 μM per row (c1)",69.4%
same,inhibition at 16 µM,"read-out: percent inhibition (dose matrix), Table 102, Promethazine HCl 16 μM, Paroxetine HCl 0-27 μM per row (c1)",36.7%
same,inhibition at 31 µM,"read-out: percent inhibition (dose matrix), Table 102, Promethazine HCl 31 μM, Paroxetine HCl 0-27 μM per row (c1)",78.8%
same,inhibition at 16 µM,"read-out: percent inhibition (dose matrix), Table 105, Promethazine HCl 16 μM, Fluoxetine HCl 0-29 μM",22%
same,inhibition at 31 µM,"read-out: percent inhibition (dose matrix), Table 105, Promethazine HCl 31 μM, Fluoxetine HCl 0-29 μM",62.3%
same,inhibition at 16 µM,"read-out: percent inhibition of TNFα secretion, Promethazine HCl 16 μM, Amoxapine μM r5-r13: 0,0.2,0.4,0.8,1.6,3.2,6.4,13,25",60.4%
same,inhibition at 16 µM,"read-out: percent inhibition of TNFα secretion, Promethazine HCl 16 μM, Desipramine HCl: 0/0.25/0.5/1/2/4/8/16/32 μM",42.8%
same,inhibition at 16 µM,"read-out: percent inhibition of TNFα secretion, Promethazine HCl 16 μM, Fluoxetine HCl μM r5-r13: 0,0.23,0.45,0.9,1.8,3.6,7.2,14,29",65.3%
same,inhibition at 16 µM,"read-out: percent inhibition of TNFα secretion, Promethazine HCl 16 μM, Paroxetine HCl μM by row r5-r13: 0/0.21/0.42/0.83/1.7/3.3/6.7/13/27",57.1%
same,inhibition at 16 µM,"read-out: percent inhibition of TNFα secretion, Promethazine HCl 16 μM, Sertraline HCl by grid row r5-r13: 0/0.25/0.5/1/2/4/7.9/16/32 μM",40%
same,inhibition at 31 µM,"read-out: percent inhibition of TNFα secretion, Promethazine HCl 31 μM, Amoxapine μM r5-r13: 0,0.2,0.4,0.8,1.6,3.2,6.4,13,25",85.4%
same,inhibition at 31 µM,"read-out: percent inhibition of TNFα secretion, Promethazine HCl 31 μM, Desipramine HCl: 0/0.25/0.5/1/2/4/8/16/32 μM",75.7%
same,inhibition at 31 µM,"read-out: percent inhibition of TNFα secretion, Promethazine HCl 31 μM, Fluoxetine HCl μM r5-r13: 0,0.23,0.45,0.9,1.8,3.6,7.2,14,29",87%
same,inhibition at 31 µM,"read-out: percent inhibition of TNFα secretion, Promethazine HCl 31 μM, Paroxetine HCl μM by row r5-r13: 0/0.21/0.42/0.83/1.7/3.3/6.7/13/27",84.2%
same,inhibition at 31 µM,"read-out: percent inhibition of TNFα secretion, Promethazine HCl 31 μM, Sertraline HCl by grid row r5-r13: 0/0.25/0.5/1/2/4/7.9/16/32 μM",72.1%
same,inhibition of TNFα secretion,"prednisolone 1 μM, promethazine HCl r5-r13: 0,0.24,0.49,0.97,1.9,3.9,7.8,16,31 μM",38
COc1ccc(CN(CCN(C)C)c2ccccn2)cc1 [Pyrilamine Maleate],inhibition of TNFα secretion,"prednisolone […], pyrilamine maleate r5-r13: 0,0.19,0.38,0.76,1.5,3,6.1,12,24 μM",20
